Results as given in article PMC9668914, “Understanding VPAC receptor family peptide binding and selectivity” (Nature Communications, 2022).
Like-named read-outs stand apart in the source and are kept apart here. No end group written: not given here.

Key:
PAC1R = molecular target: T1, PAC1R (Homo sapiens, UniProt P41586); experiment: cAMP accumulation, chimeric peptides (Fig. 5b); format: cell-based; settings: COS-7, three-parameter logistic, read-out: pEC50, PAC1R cAMP (converted)
T1 construct: An HA signal peptide was inserted in place of the native signal peptide of the receptors; HA signal peptide (replaces the native signal peptide) (N); 3C protease cleavage sites (between FLAG and receptor, and between receptor and His) (internal); expressed in transfected cells; host or cells: COS-7 (transient, PEI)
T1 sequence (P41586 21-468): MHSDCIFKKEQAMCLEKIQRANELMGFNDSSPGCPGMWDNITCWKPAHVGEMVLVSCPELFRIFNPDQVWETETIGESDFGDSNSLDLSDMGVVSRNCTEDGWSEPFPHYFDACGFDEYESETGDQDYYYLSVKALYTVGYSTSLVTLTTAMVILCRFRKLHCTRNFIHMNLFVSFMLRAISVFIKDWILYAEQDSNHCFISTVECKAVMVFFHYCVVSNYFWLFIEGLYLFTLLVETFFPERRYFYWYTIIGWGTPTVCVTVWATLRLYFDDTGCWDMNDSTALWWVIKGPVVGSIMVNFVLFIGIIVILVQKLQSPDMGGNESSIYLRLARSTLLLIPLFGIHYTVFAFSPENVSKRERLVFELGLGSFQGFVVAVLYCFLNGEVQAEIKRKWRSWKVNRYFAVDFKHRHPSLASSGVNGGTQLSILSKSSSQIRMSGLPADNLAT
Text: (§1) An HA signal peptide was inserted in place of the native signal peptide of the receptors and a FLAG epitope was incorporated into the receptor N-terminus immediately after the signal peptide. A His tag was fused to C-terminus of the receptor. 3C protease cleavage sites were inserted between both the FLAG and His tags and the receptor. […] The following PAC1R and VPAC1R mutants were also generated using Quikchange mutagenesis: PAC1R C25A, PAC1R C219A, PAC1R C25A/C219A, VPAC1R C37A and VPAC1R C208A. For all PAC1R constructs, we used the PAC1R null (PAC1n) splice variant. A construct containing N-terminal NLuc immediately after the native signal peptide of PAC1R was also generated in pcDNA3.1.
COS-7 cells were used for the chimeric peptide and cysteine mutagenesis pharmacological assays due to their lack of endogenous expression of PAC1R and receptor activity-modifying proteins, reported to potentially heterodimerize with PAC1R and VPAC1R[42]. Cells were cultured in Dulbecco’s Modified Eagle’s Medium (DMEM) (Invitrogen) supplemented with 5% v/v heat-inactivated FBS at 37 °C and […] /5% CO2 in a humidified incubator. COS-7 cells were plated in 10 cm dishes at approximately 1 million cells/dish. Cells were transfected 24 h later, with 5 µg of either WT or mutant PAC1R or VPAC1R receptor DNA. DNA and PEI (in a 1:6 ratio) were each diluted in 150 mM NaCl, and then combined and incubated for 10 min, before the mixture was added to the 10 cm dish. The next day, cells were harvested from the 10 cm dishes using Trypsin-Versene (PBS + 0.5 mM EDTA, pH 7.4), and were seeded at a density of 15,000 cells/well into clear 96-well culture plates and incubated overnight at 37 °C in 5% CO2 for cAMP accumulation assay the next day.
The reaction was terminated after 30 min by aspiration of the buffer and addition of 50 μl of ice-cold ethanol. Upon evaporation of ethanol, 75 μl of lysis buffer (5 mM HEPES, 0.1% (w/v) OVA, 0.3% (w/v) Tween20, pH 7.4) was added to the cells. cAMP detection was performed using a LANCE cAMP Detection Kit (PerkinElmer) for the construct validation and cysteine mutagenesis pharmacological assays and cAMP Gs HiRange kit (Cisbio) for the chimeric peptide pharmacological assays. The plates were read using an EnVision plate reader with excitation at 320 nm and emission at 615 nm[45].
(§2) The pharmacological data in figures and tables are reported as mean + standard error of the mean (SEM) with the number of biological replicates indicated in the figure and table legends where “n” represents the number of biological replicates performed. Concentration-response data were analyzed in GraphPad Prism version 9.4.0 using a three-parameter logistic curve to derive pEC50 values for the cyclic AMP accumulation. Competition binding data were analyzed in GraphPad Prism using the one site—Fit log IC50 model to derive pIC50 values. For the cysteine mutagenesis data, comparisons of multiple different groups were performed using one-way analysis of variance (ANOVA), followed by Dunnett’s post-hoc test with the control group being the WT receptor, with significance accepted at p < 0.05. For the chimeric peptide data, comparisons of multiple different groups were performed using one-way ANOVA, followed by Tukey’s post-hoc test, with significance accepted at p < 0.05.

Nluc-PAC1R = molecular target: T2, Nluc-PAC1R (Homo sapiens, UniProt P41586); experiment: NanoBRET competition binding, AF568-PACAP27 probe (Fig. 5c); settings: COS-7, 30 nM AF568-PACAP27, 4 °C, read-out: pIC50, PAC1R competition binding (converted)
T2 construct: A construct containing N-terminal NLuc immediately after the native signal peptide of PAC1R was also generated in pcDNA3.1; expressed in transfected cells; host or cells: COS-7 (transient, PEI; whole cells at 4 °C)
T2 sequence (P41586 21-468): T1 sequence (P41586 21-468)
Text: as §1
Therefore, the lysine residue at position 21 was replaced with a cysteine residue (^21C) for the facile conjugation of fluorophore via thiol-maleimide click reaction. The resulting target peptide ^21C-PACAP27 (Mutant fragment) with amidated C-terminus was synthesized by standard Fmoc-solid phase peptide synthesis method[43] and purified by Reversed-phase high-performance liquid chromatography (RP-HPLC). […] of Alexa Fluor™ 568F was purchased from ThermoFisher Scientific (Catalog number: A20003). The thiol-maleimide conjugation reaction was carried out by our published protocol. […] The molecular weight of the probe was confirmed by Matrix-Assisted Laser Desorption/Ionization Time-of-Flight Mass Spectrometry (MALDI-TOF MS).
COS-7 cells were plated in 10 cm dishes at approximately 1 million cells/dish. Cells were transfected 24 h later, using 3 μg of Nluc-PAC1R DNA using the method described above and then seeded at a density of 15,000 cells per well in white-bottom 96-well culturplates 24 h prior to assay. On the day of the assay, cell culture media was replaced with BRET buffer (0.1% ovalbumin, 10 mM HEPES, 1x HBSS, pH 7.45) and incubated at 4 °C for two hours. […] After 1.5 h, furimazine (10 μM final concentration) was added to each well and the plate incubated for a further 30 min in the dark at 4 °C before reading. Filtered light emissions were measured at 460±40 nm (donor channel) and at 610-LP nm (long pass) (acceptor channel) using a PHERAstar plate reader (BMG Labtech). The raw NanoBRET ratio was calculated by dividing the luminescence from the acceptor channel by the donor channel. Data were expressed as % AF568-PACAP27 BRET signal in the absence of competing ligand.
as §2

Molecule | EC50 (PAC1R; replicate n=1) [nM] | EC50 (PAC1R; replicate n=2) [nM] | EC50 (PAC1R; replicate n=3) [nM] | EC50 (PAC1R; replicate n=4) [nM] | EC50 (PAC1R; replicate n=5) [nM] | IC50 (Nluc-PAC1R; replicate n=1) [nM] | IC50 (Nluc-PAC1R; replicate n=2) [nM] | IC50 (Nluc-PAC1R; replicate n=3) [nM] | IC50 (Nluc-PAC1R; replicate n=4) [nM] | IC50 (Nluc-PAC1R; replicate n=5) [nM]
HSDGVFTDNYTRLRKQMAVKKYLNSILN-NH2 [Gly4 VIP] | 28.7 | 12 | 12.6 | 23.6 | 7.96 | 7550 | 5500 | 7110 | 3400 | 1140
CC[C@H](C)[C@H](NC(=O)[C@H](C)NC(=O)[C@H](CC(=O)O)NC(=O)[C@H](CO)NC(=O)[C@@H](N)Cc1cnc[nH]1)C(=O)N[C@@H](Cc1ccccc1)C(=O)N[C@H](C(=O)N[C@@H](CC(=O)O)C(=O)N[C@@H](CO)C(=O)N[C@@H](Cc1ccc(O)cc1)C(=O)N[C@@H](CO)C(=O)N[C@@H](CCCNC(=N)N)C(=O)N[C@@H](Cc1ccc(O)cc1)C(=O)N[C@@H](CCCNC(=N)N)C(=O)N[C@@H](CCCCN)C(=O)N[C@@H](CCC(N)=O)C(=O)N[C@@H](CCSC)C(=O)N[C@@H](C)C(=O)N[C@H](C(=O)N[C@@H](CCCCN)C(=O)N[C@@H](CCCCN)C(=O)N[C@@H](Cc1ccc(O)cc1)C(=O)N[C@@H](CC(C)C)C(=O)N[C@@H](C)C(=O)N[C@@H](C)C(=O)N[C@H](C(=O)N[C@@H](CC(C)C)C(N)=O)C(C)C)C(C)C)[C@@H](C)O [Ala4 PACAP27] | 3.48 | 1.67 | 2.05 | 8.65 | 3.32 | 695 | 1970 | 546 | 918 | 2860
